Data taken from ChEMBL document CHEMBL4152280, “Binding mechanism investigations guiding the synthesis of novel condensed 1,4-dihydropyridine derivatives with L-/T-type calcium channel blocking activity” (Eur J Med Chem, 2018).
The source made the active and inactive calls. No cut-off for these calls is given here.

What was measured:
[1] = biological target: Cav1.2 (voltage-dependent L-type calcium channel subunit alpha-1C) (Rattus norvegicus, UniProt P22002); test: Inhibition of rat Cav1.2 at 10 uM at -90 mV holding potential by patch clamp electrophysiology assay relative to control
Sequence of Cav1.2 (voltage-dependent L-type calcium channel subunit alpha-1C) (P22002 whole entry): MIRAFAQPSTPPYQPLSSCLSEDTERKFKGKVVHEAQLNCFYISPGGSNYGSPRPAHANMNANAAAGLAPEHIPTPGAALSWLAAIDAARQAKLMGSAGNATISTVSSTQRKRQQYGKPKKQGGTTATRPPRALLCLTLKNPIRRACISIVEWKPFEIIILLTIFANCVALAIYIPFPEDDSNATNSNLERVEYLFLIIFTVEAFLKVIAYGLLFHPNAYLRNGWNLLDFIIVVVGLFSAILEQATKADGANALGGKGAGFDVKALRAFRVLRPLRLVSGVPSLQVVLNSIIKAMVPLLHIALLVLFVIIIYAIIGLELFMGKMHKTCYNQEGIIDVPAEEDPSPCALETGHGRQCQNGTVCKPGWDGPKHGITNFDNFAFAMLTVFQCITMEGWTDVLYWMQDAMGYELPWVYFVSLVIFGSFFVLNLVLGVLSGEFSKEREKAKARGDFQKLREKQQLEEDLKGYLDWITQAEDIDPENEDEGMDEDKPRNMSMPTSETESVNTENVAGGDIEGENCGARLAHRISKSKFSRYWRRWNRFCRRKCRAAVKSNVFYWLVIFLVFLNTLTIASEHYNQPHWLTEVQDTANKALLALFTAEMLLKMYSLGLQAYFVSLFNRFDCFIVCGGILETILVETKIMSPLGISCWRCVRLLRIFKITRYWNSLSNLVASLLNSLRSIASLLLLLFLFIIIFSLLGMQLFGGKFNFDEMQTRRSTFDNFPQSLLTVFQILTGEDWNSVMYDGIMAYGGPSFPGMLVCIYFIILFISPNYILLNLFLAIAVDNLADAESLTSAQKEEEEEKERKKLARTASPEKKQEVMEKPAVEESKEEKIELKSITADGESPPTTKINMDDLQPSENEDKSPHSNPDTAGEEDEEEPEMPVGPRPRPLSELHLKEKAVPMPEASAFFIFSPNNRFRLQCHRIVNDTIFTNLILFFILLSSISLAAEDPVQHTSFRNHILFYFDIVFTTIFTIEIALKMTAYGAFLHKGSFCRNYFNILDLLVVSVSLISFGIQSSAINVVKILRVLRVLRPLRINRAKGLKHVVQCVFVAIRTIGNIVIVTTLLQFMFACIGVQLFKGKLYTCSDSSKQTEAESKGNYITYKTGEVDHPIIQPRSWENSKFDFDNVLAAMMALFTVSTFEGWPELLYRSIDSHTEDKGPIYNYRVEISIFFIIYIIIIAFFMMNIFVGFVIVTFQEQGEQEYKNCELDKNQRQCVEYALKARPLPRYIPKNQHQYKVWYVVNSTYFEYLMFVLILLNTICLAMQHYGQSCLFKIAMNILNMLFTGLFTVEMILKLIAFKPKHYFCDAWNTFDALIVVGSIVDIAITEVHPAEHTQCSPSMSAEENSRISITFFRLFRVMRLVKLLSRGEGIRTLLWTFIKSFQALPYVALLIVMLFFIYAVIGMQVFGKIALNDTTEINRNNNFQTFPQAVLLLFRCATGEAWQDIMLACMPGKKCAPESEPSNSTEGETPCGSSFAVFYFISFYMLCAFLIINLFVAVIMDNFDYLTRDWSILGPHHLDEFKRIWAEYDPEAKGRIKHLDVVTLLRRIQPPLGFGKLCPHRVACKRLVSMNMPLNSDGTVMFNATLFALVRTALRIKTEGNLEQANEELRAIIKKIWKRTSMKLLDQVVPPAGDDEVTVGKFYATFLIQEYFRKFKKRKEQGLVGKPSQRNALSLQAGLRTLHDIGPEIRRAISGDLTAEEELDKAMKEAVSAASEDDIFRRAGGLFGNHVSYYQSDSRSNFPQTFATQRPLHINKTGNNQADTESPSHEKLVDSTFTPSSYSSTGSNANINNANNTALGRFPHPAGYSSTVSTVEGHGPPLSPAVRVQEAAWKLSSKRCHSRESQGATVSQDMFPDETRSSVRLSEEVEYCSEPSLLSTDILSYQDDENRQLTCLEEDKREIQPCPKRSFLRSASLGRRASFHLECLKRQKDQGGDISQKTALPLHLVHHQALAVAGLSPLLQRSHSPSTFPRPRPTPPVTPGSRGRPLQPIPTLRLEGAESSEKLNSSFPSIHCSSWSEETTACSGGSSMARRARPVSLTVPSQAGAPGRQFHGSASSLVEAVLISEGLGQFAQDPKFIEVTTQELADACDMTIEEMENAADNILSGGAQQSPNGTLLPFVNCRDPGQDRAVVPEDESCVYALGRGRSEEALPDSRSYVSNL

[2] = biological target: Voltage-dependent T-type calcium channel subunit alpha-1H (Homo sapiens) (UniProt O95180); test: Inhibition of human Cav3.2 at 10 uM at -110 mV holding potential by patch clamp electrophysiology assay
Sequence of Voltage-dependent T-type calcium channel subunit alpha-1H (Homo sapiens) (O95180 whole entry): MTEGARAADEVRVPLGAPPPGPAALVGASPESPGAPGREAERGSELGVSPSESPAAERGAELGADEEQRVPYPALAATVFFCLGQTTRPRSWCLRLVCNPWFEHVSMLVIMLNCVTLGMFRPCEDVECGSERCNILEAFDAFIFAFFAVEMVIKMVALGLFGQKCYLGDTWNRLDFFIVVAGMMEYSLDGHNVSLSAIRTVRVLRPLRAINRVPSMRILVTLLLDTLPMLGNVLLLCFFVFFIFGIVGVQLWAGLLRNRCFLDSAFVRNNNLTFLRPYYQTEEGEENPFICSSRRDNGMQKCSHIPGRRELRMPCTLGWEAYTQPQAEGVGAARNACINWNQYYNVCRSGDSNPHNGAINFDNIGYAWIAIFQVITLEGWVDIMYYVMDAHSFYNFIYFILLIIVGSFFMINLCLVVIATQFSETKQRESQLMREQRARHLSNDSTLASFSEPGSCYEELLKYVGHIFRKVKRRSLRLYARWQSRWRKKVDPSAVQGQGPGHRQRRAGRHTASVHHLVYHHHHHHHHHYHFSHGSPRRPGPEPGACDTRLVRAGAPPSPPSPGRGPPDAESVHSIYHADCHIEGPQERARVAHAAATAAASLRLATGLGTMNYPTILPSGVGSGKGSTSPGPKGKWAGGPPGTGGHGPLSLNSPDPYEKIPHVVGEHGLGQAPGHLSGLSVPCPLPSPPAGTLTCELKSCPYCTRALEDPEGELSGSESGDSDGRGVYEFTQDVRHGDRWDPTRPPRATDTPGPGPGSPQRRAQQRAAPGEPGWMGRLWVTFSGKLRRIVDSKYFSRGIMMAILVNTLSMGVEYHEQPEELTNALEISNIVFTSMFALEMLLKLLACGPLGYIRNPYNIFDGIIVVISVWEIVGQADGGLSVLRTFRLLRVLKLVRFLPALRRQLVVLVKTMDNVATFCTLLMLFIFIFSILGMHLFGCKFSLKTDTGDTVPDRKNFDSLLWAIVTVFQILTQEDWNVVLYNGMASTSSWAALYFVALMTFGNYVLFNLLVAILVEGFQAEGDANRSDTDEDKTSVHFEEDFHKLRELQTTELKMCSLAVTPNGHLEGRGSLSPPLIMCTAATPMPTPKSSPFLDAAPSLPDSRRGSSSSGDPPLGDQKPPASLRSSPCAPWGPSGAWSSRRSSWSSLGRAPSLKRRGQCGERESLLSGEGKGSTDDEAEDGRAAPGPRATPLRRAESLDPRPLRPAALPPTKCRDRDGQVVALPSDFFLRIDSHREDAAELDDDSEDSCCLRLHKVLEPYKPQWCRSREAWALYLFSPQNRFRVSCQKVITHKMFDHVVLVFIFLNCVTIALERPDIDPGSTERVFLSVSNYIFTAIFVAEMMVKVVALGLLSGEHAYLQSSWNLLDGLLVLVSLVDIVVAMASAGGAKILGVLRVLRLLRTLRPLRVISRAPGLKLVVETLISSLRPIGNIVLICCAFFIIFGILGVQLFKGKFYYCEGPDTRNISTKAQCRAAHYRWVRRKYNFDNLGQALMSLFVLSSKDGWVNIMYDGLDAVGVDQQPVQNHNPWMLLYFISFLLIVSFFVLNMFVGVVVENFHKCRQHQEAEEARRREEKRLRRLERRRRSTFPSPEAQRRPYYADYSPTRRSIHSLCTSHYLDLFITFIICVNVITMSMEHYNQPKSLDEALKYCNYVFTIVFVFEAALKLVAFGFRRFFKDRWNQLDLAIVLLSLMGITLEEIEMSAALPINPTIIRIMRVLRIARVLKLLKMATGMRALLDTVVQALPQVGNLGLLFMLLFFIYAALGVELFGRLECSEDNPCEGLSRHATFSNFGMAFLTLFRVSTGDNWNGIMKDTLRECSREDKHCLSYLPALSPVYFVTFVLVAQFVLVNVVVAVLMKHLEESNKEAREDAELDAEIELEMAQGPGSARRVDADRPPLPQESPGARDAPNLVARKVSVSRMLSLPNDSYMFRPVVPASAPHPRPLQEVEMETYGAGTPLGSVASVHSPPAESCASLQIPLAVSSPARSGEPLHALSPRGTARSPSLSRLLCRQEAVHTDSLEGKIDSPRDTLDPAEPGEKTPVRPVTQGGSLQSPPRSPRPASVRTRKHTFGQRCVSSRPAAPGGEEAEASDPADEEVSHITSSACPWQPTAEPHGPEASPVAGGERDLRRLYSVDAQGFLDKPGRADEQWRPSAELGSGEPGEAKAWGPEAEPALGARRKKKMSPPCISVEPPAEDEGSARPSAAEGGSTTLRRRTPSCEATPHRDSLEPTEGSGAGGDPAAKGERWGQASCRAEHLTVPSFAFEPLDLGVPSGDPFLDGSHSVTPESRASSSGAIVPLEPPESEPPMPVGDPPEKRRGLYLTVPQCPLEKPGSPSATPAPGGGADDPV

| inhibition [2] | SMILES | inhibition at 10 µM [1] [%] |
| --- | --- | --- |
|  | CCOC(=O)C1=C(C)NC2=C(C(=O)C(C)(C)CC2)C1c1cc([N+](=O)[O-])ccc1O (centres undefined) | 70 |
|  | CC1=C(C(=O)OCc2ccccc2)C(c2cc([N+](=O)[O-])ccc2O)C2=C(CCC(C)(C)C2=O)N1 (centres undefined) | 70 |
|  | CC1=C(C(=O)OCC(C)C)C(c2cc([N+](=O)[O-])ccc2O)C2=C(CC(C)(C)CC2=O)N1 (centres undefined) | 30 |
|  | COC(=O)C1=C(C)NC2=C(C(=O)C(C)(C)CC2)C1c1cc([N+](=O)[O-])ccc1O (centres undefined) | < 30 |
| Active | CC1=C(C(=O)OCC(C)C)C(c2cc([N+](=O)[O-])cc([N+](=O)[O-])c2O)C2=C(CCC(C)(C)C2=O)N1 (centres undefined) |  |
| Active | CCOC(=O)C1=C(C)NC2=C(C(=O)C(C)(C)CC2)C1c1ccc(O)c(C(F)(F)F)c1 (centres undefined) |  |
|  | CC1=C(C(=O)OC(C)(C)C)C(c2cc([N+](=O)[O-])ccc2O)C2=C(CCC(C)(C)C2=O)N1 (centres undefined) | < 30 |
| Active | CC1=C(C(=O)OCC(C)C)C(c2ccc(O)c(C(F)(F)F)c2)C2=C(CCC(C)(C)C2=O)N1 (centres undefined) |  |
|  | CC1=C(C(=O)OCC(C)C)C(c2cc([N+](=O)[O-])ccc2O)C2=C(CCC(C)(C)C2=O)N1 (centres undefined) | 70 |
| Active | CCOC(=O)C1=C(C)NC2=C(C(=O)C(C)(C)CC2)C1c1cc(Br)cc([N+](=O)[O-])c1O (centres undefined) | 50 |
|  | CC1=C(C(=O)OCC(C)C)C(c2cc(Br)cc([N+](=O)[O-])c2O)C2=C(CCC(C)(C)C2=O)N1 (centres undefined) | 10 |
|  | CC1=C(C(=O)OCC(C)C)C(c2cc([N+](=O)[O-])cc(Br)c2O)C2=C(CC(C)(C)CC2=O)N1 (centres undefined) | 70 |
|  | CC1=C(C(=O)OCC(C)C)C(c2cc([N+](=O)[O-])cc(Br)c2O)C2=C(CCC(C)(C)C2=O)N1 (centres undefined) | 15 |
